Data on 7 molecules can be found in patent US8586051B2, “Glycolipids and analogues thereof as antigens for NKT cells” (The Rockefeller University, priority 2004, dated 2013).

For assay [1], the system named is Vα24i human NKT cell line. The experiment in a line: In vitro cytokine secretion assay using human NKT cell lines with CD14+ dendritic cells. Format: cell-based. How it is done:
(§1) Human NKT cell lines, expressing the Vα24i T cell receptor as well as CD161, were generated as follows: Anti-CD161 monoclonal antibodies, and anti-CD14 monoclonal antibodies, each coupled to magnetic beads (Miltenyi biotec, Auburn, Calif.), were used sequentially to isolate CD161^+ cells and CD14^+ cells from leukopaks. Immature dendritic cells were generated from the CD14^+ cells after a two-day incubation in the presence of 300 U/ml GM-CSF (R&D systems, Minneapolis, Minn.) and 100 U/ml IL-4 (R&D systems, Minneapolis, Minn.). Following irradiation with 2000 rads, the immature dendritic cells were co-cultured with syngeneic CD161′ cells in the presence of 100 ng/ml of alpha-galactosylceramide and 10 IU/ml of IL-2 (Invitrogen, Carlsbad Calif.) for 10 to 14 days. After stimulating the CD161^+ cells a second time with alpha-galactosylceramide-pulsed, irradiated immature dendritic cells, NKT cell lines were shown by flow cytometry to express both CD161^+ and V 24i TCR (99% purity).
IFN-γ and IL-4 secretion by the Vα 24i human NKT cell line was determined by ELISA (BD Pharmingen, San Diego, Calif.) after culture for 16 hours. […]
as §1, with “of 100-0.1” for “of 100”
IFN-γ secretion by the Vα 24i human NKT cell line was determined by ELISA (BD Pharmingen, San Diego, Calif.) after culture for 16 hours. […]

The subject of assay [2] is CD1d reactive T cell hybridomas with an invariant Vα14i T cell antigen receptor α chain. Nature of the assay: 1.2 Hybridoma assay (IL-2 release by ELISA). The conditions noted are these: for IL-2 secretion: CD1d coated plates, FIG. 8b; for IL-2 release / IL-2 production: various concentrations, FIG. 13. Format: cell-based, Mouse. How it is done:
As a measure of T cell activation, IL-2 release into the tissue culture medium was measured after 16 hours culture by an ELISA assay.
As a measure of T cell activation, IL-2 and IFN-γ release into the tissue culture medium was measured after 16 hours culture by an ELISA assay.

In the case of `CCCCCCCCCCCCCCC[C@@H](O)[C@H](COC1OC(C(=O)O)C(O)C(O)C1O)NC(=O)CCCCCCCCCCCCC` (some centres unmarked) [Compound 5], the “reactivity of human Vα24i NKT cells” value in assay [1] is reported as “conserved”.

On to `CCCCCCCCCCCCCCC[C@@H](O)[C@H](COC1OC(C(=O)O)C(O)C(O)C1O)NC(=O)[C@@H](O)CCCCCCCCCCCC` (some centres unmarked) [Compound 6], for which the “reactivity of human Vα24i NKT cells” value in assay [1] is given as “conserved”.

Regarding `CCCCCCCCCCCCCCC[C@@H](O)[C@H](COC1OC(CO)C(O)C(O)C1O)NC(=O)CCCCCCCCCCCCC` (some centres unmarked) [Compound 7], in assay [2], the IL-2 secretion entry is “greater IL-2 secretion when compared to the galacturonic acid derivatives”.

As to `CCCCCCCCCCCCCCC[C@@H](O)[C@H](COC1OC(CO)C(O)C(O)C1O)NC(=O)[C@@H](O)CCCCCCCCCCCC` (some centres unmarked) [Compound 8], the IL-2 secretion result in assay [2] is given as “less able to activate IL-2 secretion when compared with 5”.

For the molecule `CCCCCCCCCCCCCC[C@@H](O)[C@@H](O)[C@H](COC1OC(CO)C(O)C(O)C1O)NC(=O)CCCCCc1ccccc1` (some centres unmarked) [Compound 83], the “IL-2 release / IL-2 production” value in assay [2] (CD1d transfected A20 cells) was “significant increase of IL-2 production”.

As to `CCCCCCCCCCCCCC[C@@H](O)[C@@H](O)[C@H](COC1OC(CO)C(O)C(O)C1O)NC(=O)CCCCCCCc1ccccc1` (some centres unmarked) [Compound 84], the “IL-2 release / IL-2 production” value in assay [2] (CD1d transfected A20 cells) is “significant increase of IL-2 production”. The interferon-γ secretion result in assay [1] (100-0.1 ng/mL, FIGS. 17 and 18) is “consistently stimulating greater IFN-γ secretion”.

On to `CCCCCCCCCCCCCCCCCCCCCCCCCC(=O)N[C@@H](CO[C@H]1O[C@H](CO)[C@H](O)[C@H](O)[C@H]1O)[C@H](O)[C@H](O)CCCCCCCCCCCCCC` [α-GalCer, α-Galactosylceramide, reference compound], for which the “IL-2 release from the hybridomas” value in assay [2] (1 μg/ml, CD1d transfected A20 cells, FIG. 12) is recorded as “greatest amount of IL-2 release”. In addition, the IL-2 secretion result in assay [2] is given as “greater IL-2 secretion when compared to the galacturonic acid derivatives”. Further, the IL-4 secretion result in assay [1] (10 μg/ml glycolipid (1-10 μg/ml for 3-O-sulfo-α-galactosylceramide), 10 IU/ml IL-2) is “greater IFN-γ and IL-4 secretion”. For the same molecule, in assay [1] (10 μg/ml glycolipid (1-10 μg/ml for 3-O-sulfo-α-galactosylceramide), 10 IU/ml IL-2, FIG. 9a), the IFN-γ secretion result is “greater IFN-γ and IL-4 secretion”.
